For 60 compounds, RP-LC retention time results are on record in the METLIN SMRT retention time set (Domingo-Almenara et al. 2019).

This data set is described as follows: gradient 5% acetonitrile 3 min, to 50% in 2 min, to 85% in 15 min, held 3 min, 100 µL/min. The note with it: column: Zorbax Extend-C18 2.1 x 50 mm; eluents: water / acetonitrile, 0.1% formic acid. A digest of the protocol:
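Pure standards were run in mixtures of ~100 molecules by HPLC coupled to a quadrupole time-of-flight mass spectrometer. The column was a Zorbax Extend-C18 (2.1 × 50 mm, 1.8 μm) at 100 μL/min, with water and acetonitrile each containing 0.1% formic acid, in positive and negative ionization mode. Dead and dwell volumes were 40 μL and 900 μL. Retention time was taken from computationally picked adduct peaks, each manually inspected, with data collected over 3 months.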
In the case of `Cc1ccc(Cn2nc3ccc(S(=O)(=O)N4CCC(C)CC4)cn3c2=O)cc1`, the RP-LC retention time was 1060 s.

As for `CCOc1ccccc1-c1noc(Cn2c(=O)n(CC3CCCO3)c(=O)c3ccccc32)n1` (stereo not given), the RP-LC retention time was 966 s.

In turn, `CCc1nn2c(CNC(=O)c3ccccc3Br)c(C)nc2s1` had an RP-LC retention time of 636 s.

`CCn1c(=O)c(C(=O)NCc2ccc(OC)cc2)nc2cccnc21`: the RP-LC retention time came to 720 s.

With `O=C(NCCN1CCCCC1)C1CN(S(=O)(=O)c2cccnc2)CC12CCCCC2` (stereo not given), the RP-LC retention time was 613 s.

As to `CC(C)c1cc(C(=O)NCc2ccc3c(c2)OCO3)nc2cc(-c3ccccn3)nn12`, the RP-LC retention time was 986 s.

The compound `Cc1ccc(NC(=O)Cn2cnc(C)c(C)c2=O)c(F)c1` yielded an RP-LC retention time of 667 s.

`O=C(Cn1ccn2nc(-c3ccccc3)c(CO)c2c1=O)Nc1ccc2c(c1)OCO2` came in with an RP-LC retention time of 1030 s.

`CCn1c(N2CCC(C(=O)N3CCC(N4CCCCC4)CC3)CC2)cc(=O)n(C)c1=O` returned an RP-LC retention time of 600 s.

As to `CC1(C(=O)NCc2ccccc2)CN(S(=O)(=O)c2ccccc2)CC(=O)N1C1CC1` (stereo not given), the RP-LC retention time is 784 s.

`CN(C)CCn1c2c(c(SCC(=O)Nc3ccc(F)c(F)c3)nc1=O)CCC2` had an RP-LC retention time of 638 s.

For the compound `O=C(Nc1ccc(OCC(F)(F)C(F)F)cc1)c1ccncc1`, the RP-LC retention time is 683 s.

`CCn1c(=O)c2c(cc(C)n2C)n(CC(=O)Nc2cc(OC)cc(OC)c2)c1=O`: the RP-LC retention time is 779 s.

For the compound `CN1C(=O)c2cc(S(=O)(=O)Nc3ccc(F)cc3F)ccc2Oc2cccnc21`, the RP-LC retention time came to 887 s.

`CCOc1ccc(CNC(=O)C2CCCN(c3ncnc4c3oc3ccccc34)C2)cc1` (stereo not given) yielded an RP-LC retention time of 784 s.

`Cc1nc2cccnc2n1CCN1CCN(C(=O)Nc2ccc(Cl)cc2)CC1` yielded an RP-LC retention time of 610 s.

`Cc1ccc(CNC(=O)c2ccc(-c3cc(N4CCCC4)ncn3)cc2)o1` came in with an RP-LC retention time of 654 s.

Take `Cc1cc(-c2ccc(NC(=O)c3cccs3)c(C)c2)ccc1NC(=O)c1ccsc1`: the RP-LC retention time is 878 s.

For `CCCN1C(=O)C2(c3ccccc31)c1[nH]c3ccccc3c1CCN2C(=O)NCC` (stereo not given), the RP-LC retention time worked out at 793 s.

As for `COc1ccc(OCc2nn3c(-c4ccoc4C)nnc3s2)cc1`, the RP-LC retention time came out at 900 s.

In turn, `Cc1nn(CC(=O)N2CCCN(C)CC2)c(=O)c2nc(-c3ccccc3)sc12` registered an RP-LC retention time of 606 s.

For the compound `Cc1ccc(C)c(-n2ccn(Cc3nc(-c4ccccc4)no3)c(=O)c2=O)c1`, the RP-LC retention time came out at 886 s.

`CCOC(=O)c1[nH]c(C)c(CN(Cc2ccco2)C(=O)Nc2ccccc2F)c1C`: the RP-LC retention time stood at 976 s.

Compound `CCc1ccccc1N1C(=O)c2c(C(=O)OC)ncn2CC1(C)C(=O)NCc1ccccc1` (stereo not given) displayed an RP-LC retention time of 735 s.

Compound `O=C(c1cc(-c2ccccc2)n[nH]1)N1CCC2(CC1)N=C(c1ccccc1)NO2` yielded an RP-LC retention time of 785 s.

Turning to `Cc1ccsc1C(=O)Nc1cccn2cnnc12`, the RP-LC retention time is 666 s.

Consider `COc1ccc(NC(=O)N2CCCC2c2nc(-c3ccccc3OC)no2)cc1F` (stereo not given), for which the RP-LC retention time is 834 s.

Consider `Cc1cc(NS(=O)(=O)c2cc3n(c2)CCN(C(C)C)C3=O)ccc1F`, for which the RP-LC retention time amounted to 1320 s.

Consider `Fc1ccccc1-c1nc(-c2ccc3c(c2)ncn3CCN2CCCC2)no1`, for which the RP-LC retention time amounted to 629 s.

In the case of `CN1c2cc(Cl)ccc2C(=O)NC12CCN(C(=O)Nc1ccccc1F)CC2`, the RP-LC retention time was 770 s.

As for `COc1cccc(Cn2nc(-c3nc(-c4ccc(F)cc4)no3)ccc2=O)c1`, the RP-LC retention time worked out at 1060 s.

For `CCOc1ccc(-c2csc(Cc3nc(-c4ccccc4)no3)n2)cc1`, the RP-LC retention time was 1230 s.

Consider `CC(CCc1ccccc1)NC(=O)CN1CCCN(Cc2ccccc2Cl)S1(=O)=O` (stereo not given), for which the RP-LC retention time stood at 1070 s.

For the compound `O=C(c1ccccc1-c1ocnc1C(=O)N1CCOCC1)N1CCCCC1`, the RP-LC retention time was 652 s.

As for `COc1ccc(-c2c(C(=O)NCCCN3CCOCC3)nc3ccccn23)cc1`, the RP-LC retention time was determined as 594 s.

As for `NC(=O)C1CCN(C(=O)c2cn(-c3ccc(Cl)cc3)nn2)CC1`, the RP-LC retention time turned out to be 660 s.

For the compound `CCn1c(C(=O)NCCC2=CCCCC2)cc2sc(Cl)cc21`, the RP-LC retention time turned out to be 1310 s.

As for `Cc1noc(C2CN(C(=O)Nc3ccc(F)cc3)CC23CCOCC3)n1` (stereo not given), the RP-LC retention time worked out at 723 s.

In the case of `CCn1ccc(C(=O)Nc2cc(Cl)ccc2Cl)n1`, the RP-LC retention time stood at 1140 s.

For `Cc1cc2c(F)c(Oc3ncnn4cc(OC[C@@H](C)O)c(C)c34)ccc2[nH]1`, the RP-LC retention time came to 880 s.

In turn, `CCN1CCCC1CNS(=O)(=O)c1ccccc1-c1nc(-c2ccc(C)cc2)no1` (stereo not given) yielded an RP-LC retention time of 746 s.

Compound `O=C(c1cccnc1)N1CCN(C(=O)c2nnn3c2COC(c2ccc(Cl)cc2)C3)CC1` (stereo not given) came in with an RP-LC retention time of 692 s.

For the compound `CCCCN(C)C(=O)C1CCN(c2cncnc2N2CCCCC2)CC1`, the RP-LC retention time is 661 s.

For `COc1ccc(-c2cc3nn(CC(=O)Nc4cc(F)ccc4C)c(=O)n3c(C)n2)cc1`, the RP-LC retention time came out at 885 s.

`CCn1cc(CCNC(=O)Nc2cc(OC)cc(OC)c2)c2cccnc21`: the RP-LC retention time is 707 s.

For the compound `O=C1N(c2ccc(F)cc2)c2ncccc2S(=O)(=O)N1Cc1ccccc1F`, the RP-LC retention time amounted to 1040 s.

Consider `O=C(CCc1nnc2ccc(N3CCCCC3)nn12)N1CCN(c2ccccn2)CC1`, for which the RP-LC retention time came to 597 s.

Consider `CCCCS(=O)(=O)N1CCC(N2CC(F)(F)C[C@H]2COc2cccnc2)CC1`, for which the RP-LC retention time worked out at 682 s.

`CC1(C(=O)NCc2ccccc2)Cn2cnc(C(=O)NCc3ccc(Cl)cc3)c2C(=O)N1C1CC1` (stereo not given) came in with an RP-LC retention time of 789 s.

The compound `Cc1ccc2c(c1)C(C)(C)C(=O)N2CC(=O)NCc1cccnc1` had an RP-LC retention time of 612 s.

`COc1ccc(CCNC(=O)NC(C)Cc2cccs2)cc1` (stereo not given) registered an RP-LC retention time of 781 s.

In turn, `CCOCCCNCc1ccc(-c2ccc(Br)cc2)o1` had an RP-LC retention time of 705 s.

`O=C1CC(NC(=O)C2c3ccccc3Oc3ccccc32)CN1` (stereo not given) displayed an RP-LC retention time of 638 s.

For the compound `COc1ccc(N2CCN(C(=O)c3ccc(-c4cccs4)nc3)CC2)cc1`, the RP-LC retention time is 852 s.

Compound `CC1=C(c2ccc(C)cc2)S(=O)(=O)N=C1N1CCCN(C(=O)C2CCCCC2)CC1` came in with an RP-LC retention time of 600 s.

Compound `CCCCNC(=O)Cn1nc2c3cc(-c4ccccc4)nn3ccn2c1=O` displayed an RP-LC retention time of 807 s.

With `COc1ccc(-c2nc(-c3ccc(S(=O)(=O)N4CCCCC4)cc3)no2)cc1`, the RP-LC retention time stood at 1280 s.

As to `CCNc1cc(N2CCC(CCC(=O)NCc3ccc(F)cc3F)CC2)ncn1`, the RP-LC retention time was 669 s.

`COC(=O)c1ncn2c1C(=O)N(CCCc1ccccc1)C(C)(C(=O)NC1CCCCC1)C2` (stereo not given) returned an RP-LC retention time of 820 s.

On to `CN(CCNC(=O)C1=Cc2ccccc2OC1)C1CCCCC1`, for which the RP-LC retention time worked out at 675 s.
